According to EP4664463A1, “COMPUTER-IMPLEMENTED METHOD FOR OLFACTORY PROPERTY PREDICTION” (Givaudan SA, priority 2024, dated 2025):
Where “and” joins values, the source holds several entries; their conditions need not be identical. Equal entries are not always repeated. Where two headings read alike, the source gives them in different places. Blank lines part the entries; values can stand above or below the molecule they belong to.

Columns and labels:
[1] = test system: library of all class I OR with C-terminal domain RNKQIRDALKRLLKRKCCRRR (SEQ ID NO: 741); test: Screening of the library of all class I OR with carboxylic acid ligands (luciferase); format: cell-based, human; settings: full class I OR library (n = 77)
Method: All human class I OR and all key genetic variants of these OR were synthesized with a sequence coding for the identical C-terminal domain […] (SEQ ID NO: 741) in the vector pcDNA3.1(+) to generate a library of all class I OR with an improved C-terminal domain. Class I OR library members
Parallel transfection experiments were conducted with all these plasmids (n = 77, SEQ ID NO: 760, OR51F1 was excluded due to poor plasmid yield) and cells expressing the different OR were stimulated with one given ligand at a time. In total 10 different carboxylic acids ligands were tested on the full library of class I receptors.

OR52A5 [2] = target: T1, OR52A5 (Homo sapiens, UniProt Q9H2C5); test: cell-based; format: cell-based
T1 construct: expressed in transfected cells; host or cells: HEK293T cells stably expressing human RTP1S (V227I) and RTP2 (L220R)
Source text: (§1) To create an expression plasmid, an OR coding sequence fused at the end of TM7 to the desired C-terminus sequence was synthesized by a DNA synthesis service provider (BioCat GmbH, Germany) and inserted into pcDNA3.1(+) (Invitrogen, MA, USA) downstream of the CMV promoter sequence (SEQ ID NO: 82) using BamHI and Notl restriction sites. All the synthetic OR nucleotide sequences described below in Examples 1-15 further contained at their N-terminus a nucleotide sequence encoding a signal peptide (mmLucy-FLAG-rho, SeQ ID NOs: 80, 81) and at the C-terminus the bgh terminator sequence (SEQ ID NO: 83). All the OR expression plasmids also contain a Kozak sequence (GCCACC) between the BamHI restriction site and the start codon of the signal peptide. These plasmids thus contain a constitutively expressed OR gene.
T1 sequence (Q9H2C5 whole entry): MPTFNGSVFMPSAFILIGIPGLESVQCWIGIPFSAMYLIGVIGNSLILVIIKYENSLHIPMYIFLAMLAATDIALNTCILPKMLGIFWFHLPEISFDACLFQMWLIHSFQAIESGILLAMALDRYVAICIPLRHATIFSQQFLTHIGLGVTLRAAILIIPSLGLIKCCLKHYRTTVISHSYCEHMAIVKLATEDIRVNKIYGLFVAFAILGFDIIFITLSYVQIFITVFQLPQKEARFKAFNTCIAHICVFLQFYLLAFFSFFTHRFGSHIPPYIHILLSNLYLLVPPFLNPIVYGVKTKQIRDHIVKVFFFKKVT

OR52A5 [3] = test: cell-based; format: cell-based, human
Source text: as §1

OR52A5 [4] = target: T2, OR52A5 (Homo sapiens, UniProt Q9H2C5); test: cell-based; format: cell-based; remark: listed apart in the source
T2 construct: expressed in transfected cells; host or cells: HEK293T cells stably expressing human RTP1S (V227I) and RTP2 (L220R)
Source text: as §1
T2 sequence (Q9H2C5 with tags, fused parts or gaps): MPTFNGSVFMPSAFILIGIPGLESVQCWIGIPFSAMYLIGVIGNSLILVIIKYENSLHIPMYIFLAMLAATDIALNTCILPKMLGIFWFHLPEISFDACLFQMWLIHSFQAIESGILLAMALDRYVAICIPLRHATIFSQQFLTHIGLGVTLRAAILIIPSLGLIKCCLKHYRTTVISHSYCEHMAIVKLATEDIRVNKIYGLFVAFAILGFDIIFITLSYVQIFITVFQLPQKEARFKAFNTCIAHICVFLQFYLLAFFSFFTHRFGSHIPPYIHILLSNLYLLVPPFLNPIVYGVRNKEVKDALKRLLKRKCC

[5] = target: T3, OR identified in the library screening (receptor named per line) (Homo sapiens, UniProt Q8NGX5); test: Confirmatory dose-response of library hits, wild-type OR vs OR with C-terminus SEQ ID NO: 221 (Table 17); format: cell-based; settings: receptor OR10K1, wild-type sequence; read-out: Potency EC50 wild-type (converted)
T3 construct: expressed in transfected cells; host or cells: HEK293T stably expressing human RTP1S(V227I) and RTP2(L220R) (general method)
Method: Selected ligand - OR pairs were then tested in a confirmatory test with a dose response analysis.
Dose-response analysis with the cognate ligand was then performed for both the wild-type and the modified sequence.

OR1N2 [6] = target: T4, OR1N2 (Homo sapiens, UniProt Q8NGR9); format: cell-based; settings: changed C-term. SEQ ID NO: 86
T4 construct: expressed in transfected cells; host or cells: HEK293T cells stably expressing human RTP1S (V227I) and RTP2 (L220R)
Source text: as §1
T4 sequence (Q8NGR9 with tags, fused parts or gaps): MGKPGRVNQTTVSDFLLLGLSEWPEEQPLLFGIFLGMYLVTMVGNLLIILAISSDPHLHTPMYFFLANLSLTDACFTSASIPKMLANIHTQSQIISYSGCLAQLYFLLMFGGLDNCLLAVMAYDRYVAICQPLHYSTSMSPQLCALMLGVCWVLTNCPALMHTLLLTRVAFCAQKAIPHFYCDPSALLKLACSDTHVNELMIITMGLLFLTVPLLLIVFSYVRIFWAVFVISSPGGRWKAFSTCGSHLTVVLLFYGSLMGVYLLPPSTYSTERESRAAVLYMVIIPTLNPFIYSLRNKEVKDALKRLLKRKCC

OR1N2 [7] = target: T5, OR1N2 (Homo sapiens, UniProt Q8NGR9); format: cell-based; settings: wild-type
T5 construct: expressed in transfected cells; host or cells: HEK293T cells stably expressing human RTP1S (V227I) and RTP2 (L220R)
Source text: as §1
T5 sequence (Q8NGR9 whole entry): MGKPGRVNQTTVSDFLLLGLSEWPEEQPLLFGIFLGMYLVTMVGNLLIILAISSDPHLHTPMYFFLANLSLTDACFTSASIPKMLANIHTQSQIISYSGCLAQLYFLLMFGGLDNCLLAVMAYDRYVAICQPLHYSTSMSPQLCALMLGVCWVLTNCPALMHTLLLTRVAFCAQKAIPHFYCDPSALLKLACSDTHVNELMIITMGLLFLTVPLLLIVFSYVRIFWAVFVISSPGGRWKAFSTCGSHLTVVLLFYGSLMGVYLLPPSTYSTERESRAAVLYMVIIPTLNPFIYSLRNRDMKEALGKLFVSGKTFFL

OR7A17 [8] = target: T6, OR7A17 (Homo sapiens, UniProt O14581, D296E/I297V/R299D); test: Luciferase dose-response, wild-type vs changed C-terminus (SEQ ID NO: 86); format: cell-based
T6 construct: expressed in transfected cells; host or cells: HEK293T cells stably expressing human RTP1S (V227I) and RTP2 (L220R)
T6 sequence (O14581 with tags, fused parts or gaps D296E/I297V/R299D): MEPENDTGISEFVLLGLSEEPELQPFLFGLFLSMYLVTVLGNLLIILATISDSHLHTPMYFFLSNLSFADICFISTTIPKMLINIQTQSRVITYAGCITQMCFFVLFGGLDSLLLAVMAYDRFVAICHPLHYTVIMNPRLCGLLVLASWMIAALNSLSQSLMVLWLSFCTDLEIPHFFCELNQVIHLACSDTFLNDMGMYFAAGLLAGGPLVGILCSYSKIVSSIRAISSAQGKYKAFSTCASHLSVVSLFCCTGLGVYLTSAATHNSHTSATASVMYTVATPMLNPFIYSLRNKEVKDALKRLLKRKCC
Source text: as §1
(§2) Thus, optimal improvement of activity is not achieved by the approach of just using the parent C-terminus and mutating it towards consensus, but rather by exchanging the C-terminal sequence with the optimized sequence described herein.

OR7A17 [9] = test: as above; format: cell-based, human
Source text: as §1, §2

OR7A17 [10] = target: T7, OR7A17 (Homo sapiens, UniProt O14581); test: as above; format: cell-based; settings: wild-type
T7 construct: expressed in transfected cells; host or cells: HEK293T cells stably expressing human RTP1S (V227I) and RTP2 (L220R)
Source text: as §1, §2
T7 sequence (O14581 whole entry): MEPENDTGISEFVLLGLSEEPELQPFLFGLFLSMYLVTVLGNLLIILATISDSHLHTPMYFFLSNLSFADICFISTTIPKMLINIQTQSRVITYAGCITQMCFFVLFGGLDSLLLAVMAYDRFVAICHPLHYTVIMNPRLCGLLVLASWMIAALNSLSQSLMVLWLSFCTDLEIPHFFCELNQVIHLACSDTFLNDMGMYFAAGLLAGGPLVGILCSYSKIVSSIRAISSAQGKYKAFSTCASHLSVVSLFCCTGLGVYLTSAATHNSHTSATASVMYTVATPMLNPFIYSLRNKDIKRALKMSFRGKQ

OR7A17 [11] = target: T8, OR7A17 (Homo sapiens, UniProt O14581); test: Detection of Ambrofix spiked into Geranium oil on OR7A17 with SEQ ID 221; format: cell-based
T8 construct: expressed in transfected cells; host or cells: HEK293T cells stably expressing human RTP1S (V227I) and RTP2 (L220R) (general approach)
T8 sequence (O14581 with tags, fused parts or gaps): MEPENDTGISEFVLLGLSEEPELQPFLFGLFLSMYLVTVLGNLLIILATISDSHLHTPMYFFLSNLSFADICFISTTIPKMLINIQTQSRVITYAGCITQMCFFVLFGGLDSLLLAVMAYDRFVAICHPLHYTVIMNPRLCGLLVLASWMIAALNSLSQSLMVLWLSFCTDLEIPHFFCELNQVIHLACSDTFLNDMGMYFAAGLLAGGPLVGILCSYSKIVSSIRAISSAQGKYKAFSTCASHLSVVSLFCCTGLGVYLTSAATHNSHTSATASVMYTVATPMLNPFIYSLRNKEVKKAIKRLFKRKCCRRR
Method: These mixtures were tested with OR7A17 with a C-terminal domain of SEQ ID 221 (a DNA sequence encoding the modified receptor is included as SEQ ID NO: 611) as described in example 20.

[12] = test system: library of all class II OR with modified C-terminal domain RNKEVKKAIKRLFKRKCCRRR (SEQ ID NO: 221); test: Screening of the library of all class II OR with single odorants (luciferase); format: cell-based, human; settings: full class II OR library (n = 408); maximal non-cytotoxic concentration
Method: All human class II OR and all key genetic variants of these OR were synthesized with a sequence coding for an identical modified C-terminal domain […] (SEQ ID NO: 221) in the vector pcDNA3.1(+) to generate a library of all class II OR with an improved C-terminal domain. Class II OR library members with modified C-terminal domains
Parallel transfection experiments were conducted with all these plasmids (n = 408) and cells expressing the different OR were stimulated with one given ligand at a time, tested at the maximal, clearly non-cytotoxic concentration. In total 26 different ligands were tested on the full library of class II receptors.

OR2T4 [13] = test: cell-based; format: cell-based, human
OR2T4 [14] = target: T9, OR2T4 (Homo sapiens, UniProt Q8NH00); test: cell-based; format: cell-based
T9 construct: expressed in transfected cells; host or cells: HEK293T cells stably expressing human RTP1S (V227I) and RTP2 (L220R)
T9 sequence (Q8NH00 35-348): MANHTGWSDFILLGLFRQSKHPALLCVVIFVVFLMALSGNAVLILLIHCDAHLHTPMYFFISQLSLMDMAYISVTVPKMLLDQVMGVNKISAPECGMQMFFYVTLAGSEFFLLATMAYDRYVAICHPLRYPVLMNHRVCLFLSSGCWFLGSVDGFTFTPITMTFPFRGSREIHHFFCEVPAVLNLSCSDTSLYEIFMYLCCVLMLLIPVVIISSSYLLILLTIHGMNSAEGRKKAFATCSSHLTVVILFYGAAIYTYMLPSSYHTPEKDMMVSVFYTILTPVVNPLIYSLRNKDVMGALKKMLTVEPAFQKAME

OR2T4 [15] = target: T10, OR2T4 (Homo sapiens, UniProt Q8NH00, D328E/G331D/M330K); test: cell-based; format: cell-based
T10 construct: expressed in transfected cells; host or cells: HEK293T cells stably expressing human RTP1S (V227I) and RTP2 (L220R)
T10 sequence (Q8NH00 with tags, fused parts or gaps D328E/M330K/G331D): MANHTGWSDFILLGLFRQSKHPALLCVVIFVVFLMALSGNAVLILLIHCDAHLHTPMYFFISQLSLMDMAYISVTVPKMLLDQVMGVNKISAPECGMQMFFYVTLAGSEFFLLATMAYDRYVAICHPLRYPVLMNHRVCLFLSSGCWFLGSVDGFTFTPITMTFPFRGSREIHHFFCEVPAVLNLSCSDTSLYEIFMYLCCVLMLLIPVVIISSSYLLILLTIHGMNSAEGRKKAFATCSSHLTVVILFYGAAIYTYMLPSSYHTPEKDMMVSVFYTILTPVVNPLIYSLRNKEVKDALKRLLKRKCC

[16] = changed C-term SEQ ID NO: 86, read-out: Potency EC50

Activated OR and OR variants [1]: No activation observed
Compound: CCC=C(C)C(=O)O [2-Methyl-2-pentenoic acid]

Activated OR and OR variants [1]: No activation observed
Compound: CC(C)CC(=O)O [3-Methylbutanoic acid]

Detection threshold; concentration for 2-fold induction (OR52A5 [2]): >1000 µM | Detection threshold; concentration for 2-fold induction (OR52A5 [4]): 101 µM | EC50 (OR52A5 [4]; [16]): 300 µM
Compound: CCCCC(CC)CCC(=O)O (centres unmarked) [4-ethyloctanoic acid]
Comments on efficacy (OR52A5 [3]): 2.5-fold lower maximal induction for wild-type | Fold-improvement threshold (OR52A5 [3]): >10

EC50 [5]: 6.8 µM
Compound: CC(C)CCc1ccc2c(c1)OCC(=O)CO2 [7-(3-Methylbutyl)-benzo[b][1,4]dioxepin-3-one]

Second part, the molecule before the results:

Compound: O=C1CCCCCCCC=CCCCCCCO1 [Ambrettolide]
Detection threshold; concentration for 2-fold induction (OR1N2 [6]): 0.26 µM | Detection threshold; concentration for 2-fold induction (OR1N2 [7]): 1.33 µM

Compound: CC1(C)CCCC2(C)C1CCC1(C)OCCC12 (centres unmarked) [Ambrofix]
EC50 (OR7A17 [8]; [16]): 1.3 µM | Detection threshold; concentration for 2-fold induction (OR7A17 [8]; changed C-term. SEQ ID NO: 86): 0.1 µM | Comments on efficacy (OR7A17 [9]): 2-fold lower maximal induction for wild-type | Fold-improvement potency (OR7A17 [9]): 4.2 | Fold-improvement threshold (OR7A17 [9]): 18 and 18.4 | lowering of detection threshold vs wild-type (OR7A17 [9]; OR7A17 C-terminus altered towards consensus): 3 fold | detection threshold for two-fold induction (OR7A17 [9]; OR7A17 C-terminus altered towards consensus (5 amino acids)): 0.6 µM | Detection threshold; concentration for 2-fold induction (OR7A17 [10]): 1.9 µM | EC50 (OR7A17 [10]; read-out: Potency EC50): 5.6 µM | detectable concentration of target ingredient against a complex matrix (OR7A17 [11]): ≤ 0.1%

Compound: O=C(OCc1ccccc1)c1ccccc1O [Benzyl salicylate]
Activated OR and OR variants [12]: OR2AG2(Y28C)

Compound: SC1CCCC1 [Cyclopentanethiol]
Comments on efficacy (OR2T4 [13]): No induction wild-type | Fold-improvement potency (OR2T4 [13]): >>2 | Fold-improvement threshold (OR2T4 [13]): >>100 | Detection threshold; concentration for 2-fold induction (OR2T4 [14]): n.i. (>> 316) µM | EC50 (OR2T4 [14]; wild-type, read-out: Potency EC50): > 316 µM | Detection threshold; concentration for 2-fold induction (OR2T4 [15]): 3.89 µM | ligands identified in screening of sulfur odorants (OR2T4 [15]; OR2T4 with SEQ ID NO: 86): good ligands | EC50 (OR2T4 [15]; [16]): 14.6 µM
